{
  "source": "patent US20220193209A1",
  "about": "“COMPOSITIONS AND METHODS FOR REACTIVATING LATENT IMMUNODEFICIENCY VIRUS AND/OR TREATING IMMUNODEFICIENCY VIRUS INFECTION” (The J. David Gladstone institutes, a testamentary trust …, priority 2019, published 2022)",
  "key": {"[1]": {"test_system": "latent HIV-1 provirus in J-Lat cells", "assay": "HIV-GFP reactivation in J-Lat cell lines (RT-qPCR, FACS)", "type": "cell-based", "settings": "for effect on TNFα-mediated HIV reactivation: with 10 ng/mL TNFα (24 h); for effect on AS1842856-induced HIV reactivation: with 1000 nM AS1842856 (72 h); for HIV-1 reactivation (HIV-GFP): ER stress inducers, 24, 48 and 72 h", "procedure": "Total RNA from samples was extracted using the Direct-zol RNA kit (R2060; Zymogen). cDNA was generated using 500 ng for CD4^+ T cells or 1000 ng of total RNA for J-Lats with Superscript III Reverse transcription (18080-044; ThermoFisher) and oligo(dT) (18418-012; ThermoFisher). Quantitative RT-PCR was carried out using Maxima SYBR Green qPCR Master Mix (Thermo Scientific) on SDS 2.4 software (Applied Biosystems) in a total volume of 12 μL. The SYBR green qPCR reactions contained 5 μl of 2× Maxima SYBR green/Rox qPCR Master Mix (K0221; ThermoFisher), 5 μl of diluted cDNA, and 1 nmol of both forward and reverse primers. The reactions were run using the following conditions: 50° C. for 2 min and 95° C. for 10 min, followed by 40 cycles of 95° C. for 5 s and 62° C. for 30 s. See Table 1 below for a qRT-PCR primer list. […] Dissociation curve analysis was performed after the end of the PCR to confirm the presence of a single and specific product. All qPCRs were independently repeated at least three times, averaged and compared using standard deviation (±SD).\nThe J-Lat clonal cell lines are Jurkat cells that contain a stably integrated, latent HIV-1 (HXB) Δenv provirus with a GFP reporter gene in place of the nef gene (Jordan, A. et al. EMBO J. 22, 1868-1877 (2003)). In this system, reactivation from established latency can be monitored through GFP expression.\nHIV-GFP mRNA reactivation was assessed by RT-qPCR and normalized to RPL13A mRNA. Data represent average SD of three independent experiments. p-value relative to the control at each time point. FIG. 3, Panel B, depicts cell viability assessed by flow cytometry at 72 h of the same experiment as in A. Cell viability was measured by gating on both the live population at the forward scatter (FSC) and side scatter (SSC) plot and then the viable cells after staining with the viability dye. […] HIV-GFP reactivation (bars) and cell viability (dots) were analyzed by FACS. HIV-GFP reactivation is reported as a percentage of GFP-expressing cells (% GFP+ cells). Data represent average f SD of at least three independent experiments. FIG. 3, Panel D, depicts the same experiments as in FIG. 3, Panel C, but performed in different J-Lat cell lines 5A8, 6.3, 11.1 and 15.4. Data represent average f SD of at least three independent experiments. 10 ng/mL TNFα was used as control. […] Calculation of synergy for drug combinations using the Bliss independence model applied to the HIV-GFP reactivation measured as a percentage of GFP-expressing cells (% GFP+ cells).\nChromatin was prepared from J-Lat A2 and 5A8 cells, in which the LTR was stimulated by 1000 nM AS1842856 treatment, TNFα or which were left untreated/DMSO. […] HIV-GFP reactivation was analyzed by FACS and relativized to the control condition. […] Data represent average SD of 3-6 independent experiments. […] HIV-GFP reactivation was analyzed by FACS. […] HIV-GFP reactivation and cell viability were analyzed by FACS. Data were mean±SD of three independent experiments."}, "[2]": {"test_system": "HIV LTR", "assay": "Chromatin immunoprecipitation (ChIP) at the HIV LTR in J-Lat cells", "type": "cell-based, HIV-1", "procedure": "J-Lat A2 and A72 cells were treated with TNFα (10 ng/ml) for 18 h. Cells were fixed with 1% formaldehyde (v/v) in fixation buffer (1 mM EDTA, 0.5 mM EGTA, 50 mM Hepes, pH 8.0, 100 mM NaCl), and fixation was stopped after 10 min by addition of glycine to 125 mM. The cell membrane was lysed for 15 min on ice (5 mM Pipes, pH 8.0, 85 mM KCl, 0.5% NP40, protease inhibitors). After washing with nuclear swell buffer (25 mM HEPES, pH 7.5, 4 mM KCl, 1 Mm DTT, 0.5% NP-40, 0.5 mM PMSF) and micrococcal nuclease (MNase) digestion buffer (20 mM Tris pH 7.5, 2.5 mM CaCl2), 5 mM NaCl, 1 mM DTT, 0.5% NP-40), the pellet was resuspended in MNase buffer (15 mM Tris-HCl, pH 7.5, 5 mM MgCl2, 1 mM CaCl2), and 25 mM NaCl). Subsequently, samples were incubated with MNase (New England Biolabs) for 10 min at RT. The reaction was quenched with 0.5 M EDTA and incubated on ice for 5 min. Cells were lysed (1% SDS, 10 mM EDTA, 50 mM Tris-HCl, pH 8.1, protease inhibitors), and chromatin DNA was sheared to 200-1000-bp average size through sonication (Ultrasonic Processor CP-130, Cole Parmer). Cellular debris was pelleted, and the supernatant was recovered. Protein A/G Sepharose beads were blocked with single-stranded salmon sperm DNA and BSA, washed and resuspended in immunoprecipitation buffer. Blocked protein A/G Sepharose beads were added to the digested chromatin fractions and rotated at 4° C. for 2 h to preclear chromatin. Lysates were incubated overnight at 4° C. with 5 μg of FOXO1, RelA, histone H4, H4K20me1, H4K20me2, H4K20me3 antibodies, or IgG control. After incubation with protein A/G agarose beads for 2 h and washing three times with low salt buffer (0.1% SDS, 1% Triton X-100, 2 mM EDTA, 20 mM Tris-HCl, pH 8.1, 150 mM NaCl), one time with high salt buffer (0.1% SDS, 1% Triton X-100, 2 mM EDTA, 20 mM Tris-HCl, pH 8.1, 500 mM NaCl) and twice with TE-buffer (1 mM EDTA, 10 mM Tris-HCl, pH 8.1), chromatin was eluted and recovered with Agencourt AMPure XP beads (Beckman Coulter). Bound chromatin and input DNA were treated with RNase H (New England Biolabs) and Proteinase K (Sigma-Aldrich) at 37° C. for 30 min. Immunoprecipitated chromatin was quantified by real-time PCR using the Maxima SYBR Green qPCR Master Mix (Thermo Scientific) and the ABI 7700 Sequence Detection System (Applied Biosystems). The SDS 2.4 software (Applied Biosystems) was used for analysis. The specificity of each PCR reaction was confirmed by melting curve analysis using the Dissociation Curve software (Applied Biosystems). All chromatin immunoprecipitations and qPCRs were repeated at least three times, and representative results were shown.\nBecause ATF4 can be recruited to the HIV LTR (Jiang, G. et al. Downloaded from. MBio 8, 1518-1534 (2018)) and the related human T-cell leukemia virus type 1 (HTLV-1) Reddy, T. et al. Oncogene 14, 2785-2792 (1997)), chromatin immunoprecipitation (ChIP) experiments were performed to test whether ATF4 binds the HIV LTR in response to FOXO1 inhibition. While low levels of ATF4 bound HIV LTR chromatin in untreated J-Lat cells, its recruitment was 3-fold enriched after AS1842856 treatment (FIG. 9, Panel A). […] The nuclear factor of activated T cells (NFAT) can occupy the NF-κB binding sites in the HIV LTR, and is activated through calcium mobilization after T cell activation rather than protein kinase C activation as for NF-κB. […]"}, "[3]": {"test_system": "J-Lat cells", "assay": "Cell viability of J-Lat cells by flow cytometry", "type": "cell-based", "settings": "J-Lat", "procedure": "FIG. 3, Panel A, depicts results of treatment of a J-Lat cell line 5A8 with increasing concentrations (1-10000 nM) of AS1842856 for 24, 48 and 72 h. HIV-GFP mRNA reactivation was assessed by RT-qPCR and normalized to RPL13A mRNA. Data represent average SD of three independent experiments. p-value relative to the control at each time point. FIG. 3, Panel B, depicts cell viability assessed by flow cytometry at 72 h of the same experiment as in A. Cell viability was measured by gating on both the live population at the forward scatter (FSC) and side scatter (SSC) plot and then the viable cells after staining with the viability dye. FIG. 3, Panel C, depicts results of treatment of J-Lat cell lines A2 and A72 with increasing concentrations of AS1842856 for 24, 48 and 72 h. HIV-GFP reactivation (bars) and cell viability (dots) were analyzed by FACS. HIV-GFP reactivation is reported as a percentage of GFP-expressing cells (% GFP+ cells). Data represent average f SD of at least three independent experiments. FIG. 3, Panel D, depicts the same experiments as in FIG. 3, Panel C, but performed in different J-Lat cell lines 5A8, 6.3, 11.1 and 15.4. Data represent average f SD of at least three independent experiments. 10 ng/mL TNFα was used as control. FIG. 3 Panel E depicts results of treatment of J-Lat cell lines 5A8, 6.3, 11.1 and 15.4 for 72 h with increasing concentrations of both AS1842856 (Y-axis) and TNFα (X-axis) alone or in combination and analyzed by FACS. Calculation of synergy for drug combinations using the Bliss independence model applied to the HIV-GFP reactivation measured as a percentage of GFP-expressing cells (% GFP+ cells).\nFIG. 10, Panels A-F depict results of a J-Lat cell line 5A8 treated with different concentrations of inhibitors. FIG. 10, Panel A, depicts results for a J-Lat cell line A58 that was treated with increasing concentrations of A-92 (GCN2 inhibitor) in combination with 1000 nM AS1842856 (72 h) or 10 ng/mL TNFα (24 h). HIV-GFP reactivation was analyzed by FACS and relativized to the control condition. Histogram plots of percent live cells for each drug treatment are shown. FIG. 10, Panel B, depicts the same experiment as in FIG. 10, Panel A, but cells were treated with increasing concentrations of PKR inhibitor (PKRi). Histogram plots representing viability are also shown. Data are represented by mean±SD of three different […]. […] FIG. 10, Panel D, depicts a J-Lat cell line A58 that was treated with increasing concentrations of Ionomycin (0.01, 0.1, 0.5, 1 μM) for 24, 48 and 72 hr. HIV-GFP reactivation and cell viability were analyzed by FACS. FIG. 10, Panel E, depicts a J-Lat cell line 5A8 that was treated for 72 h with increasing concentrations of both Fenretinide (Y-axis) and Ionomycin (X-axis) alone or in combination and analyzed by FACS. HIV-GFP reactivation is reported as a percentage of GFP-expressing cells (% GFP+ cells). FIG. 10, Panel F, depicts a J-Lat cell line 5A8 that was also treated for 72 h with increasing concentrations of both Thapsigargin (Y-axis) and Cyclosporin A (X-axis) alone or in combination and analyzed by FACS. HIV-GFP reactivation is again reported as a percentage of GFP-expressing cells (% GFP+ cells)."}, "[4]": {"biological_target": "Smyd2 (Homo sapiens, UniProt Q9NRG4)", "sequence (Q9NRG4 whole entry, species assumed)": "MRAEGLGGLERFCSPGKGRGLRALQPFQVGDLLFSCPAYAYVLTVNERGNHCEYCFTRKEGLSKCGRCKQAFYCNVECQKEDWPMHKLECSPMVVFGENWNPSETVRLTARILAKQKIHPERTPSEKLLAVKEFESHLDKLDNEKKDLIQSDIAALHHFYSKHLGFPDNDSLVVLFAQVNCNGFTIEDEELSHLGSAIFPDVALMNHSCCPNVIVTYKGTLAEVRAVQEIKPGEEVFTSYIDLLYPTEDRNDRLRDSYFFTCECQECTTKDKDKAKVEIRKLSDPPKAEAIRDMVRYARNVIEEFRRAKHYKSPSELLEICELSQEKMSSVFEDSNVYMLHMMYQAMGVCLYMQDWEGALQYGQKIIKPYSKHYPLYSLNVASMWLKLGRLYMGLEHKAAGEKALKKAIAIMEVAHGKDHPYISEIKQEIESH", "settings": "SMYD2, substrate competitive; cited from earlier work"}},
  "data": [
    {"compound": "Cc1cccc(CC(=O)N2CCc3c2ccc(-c2cn(C)c4ncnc(N)c24)c3F)n1", "note": "[PERK inhibitor]", "values": [
      {"measurement": "effect on TNFα-mediated HIV reactivation", "setting": "[1]; J-Lat", "result": "not affected"},
      {"measurement": "suppression of AS1842856-mediated HIV reactivation", "setting": "[1]; J-Lat, with 1000 nM AS1842856", "result": "~50", "unit": "%"},
      {"measurement": "effect on AS1842856-induced HIV reactivation", "setting": "[1]; J-Lat", "result": "reduced"}
    ]},
    {"compound": "TNFα", "values": [
      {"measurement": "time of maximal activation", "setting": "[1]; J-Lat 5A8, GFP mRNA", "result": 24, "unit": "h"},
      {"measurement": "GFP expression", "setting": "[1]; four J-Lat clonal cell lines, as early as 24 hours", "result": "induced GFP expression"},
      {"measurement": "RelA recruitment to the HIV LTR", "setting": "[2]", "result": "significantly enriched"}
    ]},
    {"compound": "C/C=C(/C)C(=O)O[C@H]1C(C)=C2[C@H]([C@@H]1OC(=O)CCCCCCC)[C@@](C)(OC(C)=O)C[C@H](OC(=O)CCC)[C@@]1(O)[C@H]2OC(=O)[C@@]1(C)O", "note": "[thapsigargin]", "values": [
      {"measurement": "HIV-1 reactivation (HIV-GFP)", "setting": "[1]; J-Lat", "result": "HIV-1 reactivation"},
      {"measurement": "cellular toxicity", "setting": "[3]; ER stress inducers", "result": "dose-dependent levels of cellular toxicity"}
    ]},
    {"compound": "N#Cc1cc(C(=O)NCCCN2CCCC2)cc(-c2ccccc2N2CCN(CCc3c[nH]c4ccccc34)CC2)c1", "note": "[AZ391]", "values": [
      {"measurement": "IC50", "setting": "[4]", "result": 62, "unit": "nM"}
    ]},
    {"compound": "CC1=C(/C=C/C(C)=C/C=C/C(C)=C/C(=O)Nc2ccc(O)cc2)C(C)(C)CCC1", "note": "[fenretinide]", "values": [
      {"measurement": "HIV-1 reactivation (HIV-GFP)", "setting": "[1]; J-Lat", "result": "best reactivation"},
      {"measurement": "cellular toxicity", "setting": "[3]; ER stress inducers", "result": "dose-dependent levels of cellular toxicity"},
      {"measurement": "cellular toxicity", "setting": "[3]; fenretinide 0.5 μM, alone or with ionomycin", "result": "nontoxic"}
    ]},
    {"compound": "O=C1Nc2ccc3ncsc3c2/C1=C/c1cnc[nH]1", "note": "[PKR inhibitor]", "values": [
      {"measurement": "effect on TNFα-mediated HIV reactivation", "setting": "[1]; J-Lat", "result": "diminished"},
      {"measurement": "effect on AS1842856-induced HIV reactivation", "setting": "[1]; J-Lat", "result": "not"}
    ]},
    {"compound": "C[C@H]1CCC/C=C/[C@@H]2C[C@H](O)C[C@H]2[C@H](O)/C=C/C(=O)O1", "note": "[Brefeldin A]", "values": [
      {"measurement": "HIV-1 reactivation (HIV-GFP)", "setting": "[1]; J-Lat", "result": "HIV-1 reactivation"},
      {"measurement": "cellular toxicity", "setting": "[3]; ER stress inducers", "result": "dose-dependent levels of cellular toxicity"}
    ]}
  ]
}
